Positions of bridges follow the written chain, without caps; N, C: chain ends. Non-standard residues stand in square brackets, D forms with d. Residues, ends and D or L forms follow the SMILES beside them. Phe(3,4-(OMe)2) = COc1ccc(C[C@H](N)C(=O)O)cc1OC; hArg = N=C(N)NCCCC[C@H](N)C(=O)O; Orn = NCCC[C@H](N)C(=O)O
Key:
hNav1.7 = hNav1.7 (Homo sapiens, UniProt Q15858); experiment: cell-based; settings: Nav1.7 Use IC50
hNav1.5 = hNav1.5 (Homo sapiens, UniProt Q14524); experiment: cell-based
Chain of hNav1.5 (Q14524 whole entry, looked up): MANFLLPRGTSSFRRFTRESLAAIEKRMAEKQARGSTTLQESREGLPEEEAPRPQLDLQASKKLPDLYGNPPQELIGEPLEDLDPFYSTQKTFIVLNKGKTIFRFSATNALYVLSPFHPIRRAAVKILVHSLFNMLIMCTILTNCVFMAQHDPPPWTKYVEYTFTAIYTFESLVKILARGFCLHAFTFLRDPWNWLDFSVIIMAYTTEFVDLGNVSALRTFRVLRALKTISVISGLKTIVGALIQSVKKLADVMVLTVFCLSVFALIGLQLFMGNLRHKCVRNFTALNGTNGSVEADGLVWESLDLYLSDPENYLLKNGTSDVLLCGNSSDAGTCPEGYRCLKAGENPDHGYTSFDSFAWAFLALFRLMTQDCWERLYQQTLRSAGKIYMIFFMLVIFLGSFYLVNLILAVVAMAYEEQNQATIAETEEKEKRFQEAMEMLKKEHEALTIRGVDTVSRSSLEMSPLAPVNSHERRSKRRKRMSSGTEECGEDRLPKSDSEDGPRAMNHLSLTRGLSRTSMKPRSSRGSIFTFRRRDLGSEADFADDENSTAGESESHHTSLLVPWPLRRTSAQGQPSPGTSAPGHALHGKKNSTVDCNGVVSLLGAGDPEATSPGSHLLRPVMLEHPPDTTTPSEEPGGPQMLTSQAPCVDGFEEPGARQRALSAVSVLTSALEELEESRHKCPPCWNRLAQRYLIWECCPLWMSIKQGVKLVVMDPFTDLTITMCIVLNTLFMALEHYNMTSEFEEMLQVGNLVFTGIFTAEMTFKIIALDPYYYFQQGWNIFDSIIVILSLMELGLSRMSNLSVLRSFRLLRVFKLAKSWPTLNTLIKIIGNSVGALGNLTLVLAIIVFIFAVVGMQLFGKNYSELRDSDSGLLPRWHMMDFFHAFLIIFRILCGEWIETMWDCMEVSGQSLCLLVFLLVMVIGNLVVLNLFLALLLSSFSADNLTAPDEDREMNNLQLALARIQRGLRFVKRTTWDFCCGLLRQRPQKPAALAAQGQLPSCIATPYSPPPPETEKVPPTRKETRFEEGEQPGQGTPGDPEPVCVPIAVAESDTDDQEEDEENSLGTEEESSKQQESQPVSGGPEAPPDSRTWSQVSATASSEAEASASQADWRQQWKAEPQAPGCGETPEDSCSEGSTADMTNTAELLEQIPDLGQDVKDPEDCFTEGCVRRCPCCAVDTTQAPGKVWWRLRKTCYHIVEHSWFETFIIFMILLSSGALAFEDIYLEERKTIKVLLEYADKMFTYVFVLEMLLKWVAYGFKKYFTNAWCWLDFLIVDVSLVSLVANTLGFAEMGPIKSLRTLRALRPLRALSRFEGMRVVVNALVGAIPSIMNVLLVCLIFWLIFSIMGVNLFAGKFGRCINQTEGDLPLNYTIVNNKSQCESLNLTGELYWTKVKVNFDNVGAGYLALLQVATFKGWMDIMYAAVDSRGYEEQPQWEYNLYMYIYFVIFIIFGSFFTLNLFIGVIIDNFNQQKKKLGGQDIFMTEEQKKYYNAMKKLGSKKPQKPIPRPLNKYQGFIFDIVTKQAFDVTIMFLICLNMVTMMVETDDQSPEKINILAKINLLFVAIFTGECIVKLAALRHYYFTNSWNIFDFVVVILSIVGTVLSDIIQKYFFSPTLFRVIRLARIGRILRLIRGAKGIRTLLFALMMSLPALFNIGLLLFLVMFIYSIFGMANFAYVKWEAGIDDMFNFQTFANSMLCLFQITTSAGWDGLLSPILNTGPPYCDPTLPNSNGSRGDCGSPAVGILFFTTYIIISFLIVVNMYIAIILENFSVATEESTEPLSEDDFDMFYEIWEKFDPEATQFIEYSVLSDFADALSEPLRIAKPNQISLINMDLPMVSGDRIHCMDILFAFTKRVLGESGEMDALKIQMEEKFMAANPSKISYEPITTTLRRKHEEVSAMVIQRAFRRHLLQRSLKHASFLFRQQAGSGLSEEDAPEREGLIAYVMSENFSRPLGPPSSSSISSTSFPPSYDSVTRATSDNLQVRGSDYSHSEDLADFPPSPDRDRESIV

Chain of hNav1.7 (Q15858 whole entry, looked up): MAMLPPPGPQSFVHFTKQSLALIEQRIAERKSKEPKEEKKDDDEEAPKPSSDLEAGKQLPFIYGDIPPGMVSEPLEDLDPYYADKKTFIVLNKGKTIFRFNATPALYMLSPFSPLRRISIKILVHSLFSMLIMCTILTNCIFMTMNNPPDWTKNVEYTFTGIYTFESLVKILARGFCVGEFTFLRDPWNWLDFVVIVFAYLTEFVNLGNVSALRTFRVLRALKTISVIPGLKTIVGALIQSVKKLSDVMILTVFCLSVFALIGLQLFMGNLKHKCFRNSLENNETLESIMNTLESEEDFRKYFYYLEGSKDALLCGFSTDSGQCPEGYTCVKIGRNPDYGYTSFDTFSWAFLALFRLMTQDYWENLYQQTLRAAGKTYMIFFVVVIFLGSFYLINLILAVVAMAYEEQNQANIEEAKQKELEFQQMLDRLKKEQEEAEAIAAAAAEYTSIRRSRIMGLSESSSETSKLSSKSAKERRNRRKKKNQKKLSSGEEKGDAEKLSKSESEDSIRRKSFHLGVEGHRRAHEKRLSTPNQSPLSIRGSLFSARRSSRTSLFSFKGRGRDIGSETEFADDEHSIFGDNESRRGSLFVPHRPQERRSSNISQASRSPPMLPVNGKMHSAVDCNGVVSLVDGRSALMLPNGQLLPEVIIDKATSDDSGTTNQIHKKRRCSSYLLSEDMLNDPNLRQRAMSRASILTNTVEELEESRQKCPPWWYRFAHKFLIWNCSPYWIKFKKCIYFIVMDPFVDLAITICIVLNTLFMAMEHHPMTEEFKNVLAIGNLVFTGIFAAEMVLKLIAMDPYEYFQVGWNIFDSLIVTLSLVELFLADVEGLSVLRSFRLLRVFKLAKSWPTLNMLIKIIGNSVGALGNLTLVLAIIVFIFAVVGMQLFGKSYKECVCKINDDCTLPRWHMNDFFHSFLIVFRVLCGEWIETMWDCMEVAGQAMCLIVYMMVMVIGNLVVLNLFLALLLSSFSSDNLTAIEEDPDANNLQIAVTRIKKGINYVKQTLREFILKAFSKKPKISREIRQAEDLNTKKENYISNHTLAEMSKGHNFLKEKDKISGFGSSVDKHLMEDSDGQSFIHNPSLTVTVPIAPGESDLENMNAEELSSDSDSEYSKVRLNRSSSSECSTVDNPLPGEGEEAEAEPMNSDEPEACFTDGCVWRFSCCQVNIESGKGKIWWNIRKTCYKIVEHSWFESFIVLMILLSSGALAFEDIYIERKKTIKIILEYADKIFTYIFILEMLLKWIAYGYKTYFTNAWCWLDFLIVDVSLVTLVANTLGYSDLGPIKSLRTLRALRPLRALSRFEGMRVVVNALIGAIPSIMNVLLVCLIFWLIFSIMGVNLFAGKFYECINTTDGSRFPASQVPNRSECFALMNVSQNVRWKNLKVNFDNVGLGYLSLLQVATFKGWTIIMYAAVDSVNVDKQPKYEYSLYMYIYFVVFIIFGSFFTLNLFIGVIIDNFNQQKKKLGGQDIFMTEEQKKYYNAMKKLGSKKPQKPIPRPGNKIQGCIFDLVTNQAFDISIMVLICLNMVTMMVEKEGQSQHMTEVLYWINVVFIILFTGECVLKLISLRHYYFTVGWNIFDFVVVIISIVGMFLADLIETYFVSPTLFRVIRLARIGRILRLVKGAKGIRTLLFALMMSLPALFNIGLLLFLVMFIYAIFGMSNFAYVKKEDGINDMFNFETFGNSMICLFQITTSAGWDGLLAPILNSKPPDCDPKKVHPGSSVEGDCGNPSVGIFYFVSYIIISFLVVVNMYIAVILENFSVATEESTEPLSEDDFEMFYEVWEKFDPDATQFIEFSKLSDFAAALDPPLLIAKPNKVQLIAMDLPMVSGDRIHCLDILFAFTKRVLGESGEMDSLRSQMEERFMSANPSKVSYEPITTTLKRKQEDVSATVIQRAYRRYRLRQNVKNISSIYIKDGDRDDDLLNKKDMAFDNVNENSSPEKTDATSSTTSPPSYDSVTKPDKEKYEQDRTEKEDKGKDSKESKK

With CC[C@H](C)[C@@H]1NC(=O)[C@@H]2CSSC[C@@H]3NC(=O)[C@H](C(C)C)NC(=O)[C@H](CC(C)C)NC(=O)[C@H](CC(N)=O)NC(=O)[C@@H]4CCCN4C(=O)[C@H](CCCNC(=N)N)NC(=O)[C@H](CSSC[C@H](NC(=O)[C@@H](N)CC(=O)O)C(=O)N[C@@H](CC(C)C)C(=O)NCC(=O)N[C@@H](Cc4ccccc4)C(=O)N[C@@H](CCSC)C(=O)N[C@@H](CCCNC(=N)N)C(=O)N[C@@H](CCCCN)C(=O)N2)NC(=O)[C@H](CSSC[C@@H](C(=O)N[C@@H](CCCCN)C(=O)N[C@@H](Cc2ccc(O)cc2)C(=O)N[C@@H](Cc2c[nH]c4ccccc24)C(=O)N[C@@H](Cc2ccccc2)C(N)=O)NC(=O)[C@H](Cc2c[nH]c4ccccc24)NC(=O)[C@H](CCCCN)NC(=O)[C@H](Cc2c[nH]cn2)NC(=O)[C@H]([C@@H](C)O)NC(=O)[C@H](CCCNC(=N)N)NC(=O)[C@H](CO)NC3=O)NC(=O)[C@H](CCCCN)NC(=O)[C@H](CC(=O)O)NC(=O)[C@H](CC(N)=O)NC(=O)[C@H](CC(=O)O)NC(=O)[C@@H]2CCCN2C1=O [[Trp33]GpTx-1(1-34)] (H-DCLGFMRKCIPDNDKCCRPNLVCSRTHKWCKYWF-NH2; disulfide 2-17, 9-23, 16-30) as the compound, how does the IC50 (hNav1.7) read?
The IC50 was 0.018 µM.

What about the IC50 (hNav1.5) of the same compound?
The IC50 was 2.35 µM.

What does the source list for CC[C@H](C)[C@@H]1NC(=O)[C@@H]2CSSC[C@@H]3NC(=O)[C@H](C(C)C)NC(=O)[C@H](CC(C)C)NC(=O)[C@H](CC(N)=O)NC(=O)[C@@H]4CCCN4C(=O)[C@H](CCCNC(=N)N)NC(=O)[C@H](CSSC[C@H](NC(=O)[C@@H](N)CC(=O)O)C(=O)N[C@@H](CC(C)C)C(=O)NCC(=O)N[C@@H](C(C)C)C(=O)N[C@@H](CC(C)C)C(=O)N[C@@H](CCCNC(=N)N)C(=O)N[C@@H](CCCCN)C(=O)N2)NC(=O)[C@H](CSSC[C@@H](C(=O)N[C@@H](CCCCN)C(=O)N[C@@H](Cc2ccc(O)cc2)C(=O)N[C@H](C(=O)N[C@@H](Cc2ccccc2)C(N)=O)C(C)C)NC(=O)[C@H](Cc2c[nH]c4ccccc24)NC(=O)[C@H](CCC(=O)O)NC(=O)[C@H](Cc2c[nH]cn2)NC(=O)[C@H]([C@@H](C)O)NC(=O)[C@H](CCCNC(=N)N)NC(=O)[C@H](CO)NC3=O)NC(=O)[C@H](CCCCN)NC(=O)[C@H](CC(=O)O)NC(=O)[C@H](CC(N)=O)NC(=O)[C@H](CC(=O)O)NC(=O)[C@@H]2CCCN2C1=O [[Val5;Leu6;Glu28]GpTx-1(1-34)] (H-DCLGVLRKCIPDNDKCCRPNLVCSRTHEWCKYVF-NH2; disulfide 2-17, 9-23, 16-30)?
IC50 (hNav1.7): 0.086 µM; IC50 (hNav1.5): > 10 µM

For CC[C@H](C)[C@@H]1NC(=O)[C@@H]2CSSC[C@@H]3NC(=O)[C@H](C(C)C)NC(=O)[C@H](CC(C)C)NC(=O)[C@H](CC(N)=O)NC(=O)[C@@H]4CCCN4C(=O)[C@H](CCCNC(=N)N)NC(=O)[C@H](CSSC[C@H](NC(=O)[C@@H](N)CC(=O)O)C(=O)N[C@@H](CC(C)C)C(=O)NCC(=O)N[C@@H](C)C(=O)N[C@@H](CCSC)C(=O)N[C@@H](CCCNC(=N)N)C(=O)N[C@@H](CCCCN)C(=O)N2)NC(=O)[C@H](CSSC[C@@H](C(=O)N[C@@H](CCCCN)C(=O)N[C@@H](Cc2ccc(O)cc2)C(=O)N[C@H](C(=O)N[C@@H](Cc2ccccc2)C(N)=O)C(C)C)NC(=O)[C@H](Cc2c[nH]c4ccccc24)NC(=O)[C@H](CCCN)NC(=O)[C@H](Cc2c[nH]cn2)NC(=O)[C@H]([C@@H](C)O)NC(=O)[C@H](CCCNC(=N)N)NC(=O)[C@H](CO)NC3=O)NC(=O)[C@H](CCCCN)NC(=O)[C@H](CC(=O)O)NC(=O)[C@H](CC(N)=O)NC(=O)[C@H](CC(=O)O)NC(=O)[C@@H]2CCCN2C1=O [[Ala5;Orn28]GpTx-1(1-34)] (H-DCLGAMRKCIPDNDKCCRPNLVCSRTH[Orn]WCKYVF-NH2; disulfide 2-17, 9-23, 16-30), which IC50 (hNav1.7) is on record?
Its IC50 is 0.059 µM.

And the IC50 (hNav1.5)?
Its IC50 is greater than 10 µM.

For CC[C@H](C)[C@@H]1NC(=O)[C@@H]2CSSC[C@@H]3NC(=O)[C@H](C(C)C)NC(=O)[C@H](CC(C)C)NC(=O)[C@H](CC(N)=O)NC(=O)[C@@H]4CCCN4C(=O)[C@H](CCCNC(=N)N)NC(=O)[C@H](CSSC[C@H](NC(=O)[C@@H](N)CC(=O)O)C(=O)N[C@@H](CC(C)C)C(=O)NCC(=O)N[C@@H](C)C(=O)N[C@@H](CCSC)C(=O)N[C@@H](CCCNC(=N)N)C(=O)N[C@@H](CCCCN)C(=O)N2)NC(=O)[C@H](CSSC[C@@H](C(=O)N[C@@H](CCCCN)C(=O)N[C@@H](Cc2ccc(O)cc2)C(=O)N[C@H](C(=O)N[C@@H](Cc2ccccc2)C(N)=O)C(C)C)NC(=O)[C@H](Cc2c[nH]c4ccccc24)NC(=O)[C@H](CCCCNC(=N)N)NC(=O)[C@H](Cc2c[nH]cn2)NC(=O)[C@H]([C@@H](C)O)NC(=O)[C@H](CCCNC(=N)N)NC(=O)[C@H](CO)NC3=O)NC(=O)[C@H](CCCCN)NC(=O)[C@H](CC(=O)O)NC(=O)[C@H](CC(N)=O)NC(=O)[C@H](CC(=O)O)NC(=O)[C@@H]2CCCN2C1=O [[Ala5;hArg28]GpTx-1(1-34)] (H-DCLGAMRKCIPDNDKCCRPNLVCSRTH[hArg]WCKYVF-NH2; disulfide 2-17, 9-23, 16-30), which IC50 (hNav1.7) is on record?
The IC50 was 0.014 µM.

And the IC50 (hNav1.5)?
Its IC50 is greater than 10 µM.

Which results are given for CC[C@H](C)[C@@H]1NC(=O)[C@@H]2CSSC[C@@H]3NC(=O)[C@H](C(C)C)NC(=O)[C@H](CC(C)C)NC(=O)[C@H](CC(N)=O)NC(=O)[C@@H]4CCCN4C(=O)[C@H](CCCNC(=N)N)NC(=O)[C@H](CSSC[C@H](NC(=O)[C@@H](N)CC(=O)O)C(=O)N[C@@H](CC(C)C)C(=O)NCC(=O)N[C@@H](Cc4ccc(OC)c(OC)c4)C(=O)N[C@@H](Cc4ccccc4)C(=O)N[C@@H](CCCNC(=N)N)C(=O)N[C@@H](CCCCN)C(=O)N2)NC(=O)[C@H](CSSC[C@@H](C(=O)N[C@@H](CCCCN)C(=O)N[C@@H](Cc2ccc(O)cc2)C(=O)N[C@H](C(=O)N[C@@H](Cc2ccccc2)C(N)=O)C(C)C)NC(=O)[C@H](Cc2c[nH]c4ccccc24)NC(=O)[C@H](CCCCN)NC(=O)[C@H](Cc2c[nH]cn2)NC(=O)[C@H]([C@@H](C)O)NC(=O)[C@H](CCCNC(=N)N)NC(=O)[C@H](CO)NC3=O)NC(=O)[C@H](CCCCN)NC(=O)[C@H](CC(=O)O)NC(=O)[C@H](CC(N)=O)NC(=O)[C@H](CC(=O)O)NC(=O)[C@@H]2CCCN2C1=O [[DiMeO-F5;Phe6]GpTx-1(1-34)] (H-DCLG[Phe(3,4-(OMe)2)]FRKCIPDNDKCCRPNLVCSRTHKWCKYVF-NH2; disulfide 2-17, 9-23, 16-30)?
IC50 (hNav1.7): 0.033 µM; IC50 (hNav1.5): > 10 µM

Which IC50 (hNav1.7) does the source give for CC[C@H](C)[C@@H]1NC(=O)[C@@H]2CSSC[C@@H]3NC(=O)[C@H](C(C)C)NC(=O)[C@H](CC(C)C)NC(=O)[C@H](CC(N)=O)NC(=O)[C@@H]4CCCN4C(=O)[C@H](CCCNC(=N)N)NC(=O)[C@H](CSSC[C@H](NC(=O)[C@@H](N)CC(=O)O)C(=O)N[C@@H](CC(C)C)C(=O)NCC(=O)N[C@@H](Cc4ccccc4)C(=O)N[C@@H](CCSC)C(=O)N[C@@H](CCCNC(=N)N)C(=O)N[C@@H](CCCCN)C(=O)N2)NC(=O)[C@H](CSSC[C@@H](C(=O)N[C@@H](CCCCN)C(=O)N[C@@H](Cc2ccc(O)cc2)C(=O)N[C@H](C(=O)N[C@@H](Cc2ccccc2)C(N)=O)C(C)C)NC(=O)[C@H](Cc2c[nH]c4ccccc24)NC(=O)[C@H](CCCCN)NC(=O)[C@H](Cc2cnc[nH]2)NC(=O)[C@H]([C@@H](C)O)NC(=O)[C@H](C)NC(=O)[C@H](CO)NC3=O)NC(=O)[C@H](CCCCN)NC(=O)[C@H](CC(=O)O)NC(=O)[C@H](CC(N)=O)NC(=O)[C@H](CC(=O)O)NC(=O)[C@@H]2CCCN2C1=O [[Ala25]GpTx-1(1-34)] (H-DCLGFMRKCIPDNDKCCRPNLVCSATHKWCKYVF-NH2; disulfide 2-17, 9-23, 16-30) here?
Its IC50 is 0.012 µM.

And the IC50 (hNav1.5)?
Its IC50 is 10 µM.

For CC[C@H](C)[C@@H]1NC(=O)[C@@H]2CSSC[C@@H]3NC(=O)[C@H](C(C)C)NC(=O)[C@H](CC(C)C)NC(=O)[C@H](CC(N)=O)NC(=O)[C@@H]4CCCN4C(=O)[C@H](CCCNC(=N)N)NC(=O)[C@H](CSSC[C@H](NC(=O)[C@@H](N)CC(=O)O)C(=O)N[C@@H](CC(C)C)C(=O)NCC(=O)NC(C)(C)C(=O)N[C@@H](CC(C)C)C(=O)N[C@@H](CCCNC(=N)N)C(=O)N[C@@H](CCCCN)C(=O)N2)NC(=O)[C@H](CSSC[C@@H](C(=O)N[C@@H](CCCCN)C(=O)N[C@@H](Cc2ccc(O)cc2)C(=O)N[C@H](C(=O)N[C@@H](Cc2ccccc2)C(N)=O)C(C)C)NC(=O)[C@H](Cc2c[nH]c4ccccc24)NC(=O)[C@H](CCCCN)NC(=O)[C@H](Cc2c[nH]cn2)NC(=O)[C@H]([C@@H](C)O)NC(=O)[C@H](CCCNC(=N)N)NC(=O)[C@H](CO)NC3=O)NC(=O)[C@H](CCCCN)NC(=O)[C@H](CC(=O)O)NC(=O)[C@H](CC(N)=O)NC(=O)[C@H](CC(=O)O)NC(=O)[C@@H]2CCCN2C1=O [[Aib5;Leu6]GpTx-1(1-34)], which IC50 (hNav1.7) is on record?
The IC50 was 0.02 µM.

And the IC50 (hNav1.5)?
Its IC50 is greater than 10 µM.

CC[C@H](C)[C@@H]1NC(=O)[C@@H]2CSSC[C@@H]3NC(=O)[C@H](C(C)C)NC(=O)[C@H](CC(C)C)NC(=O)[C@H](CC(N)=O)NC(=O)[C@@H]4CCCN4C(=O)[C@H](CCCNC(=N)N)NC(=O)[C@H](CSSC[C@H](NC(=O)[C@@H](N)CC(=O)O)C(=O)N[C@@H](CC(C)C)C(=O)NCC(=O)N[C@@H](CCSC)C(=O)N[C@@H](CC(C)C)C(=O)N[C@@H](CCCNC(=N)N)C(=O)N[C@@H](CCCCN)C(=O)N2)NC(=O)[C@H](CSSC[C@@H](C(=O)N[C@@H](CCCCN)C(=O)N[C@@H](Cc2ccc(O)cc2)C(=O)N[C@H](C(=O)N[C@@H](Cc2ccccc2)C(N)=O)C(C)C)NC(=O)[C@H](Cc2c[nH]c4ccccc24)NC(=O)[C@H](CCCCN)NC(=O)[C@H](Cc2c[nH]cn2)NC(=O)[C@H]([C@@H](C)O)NC(=O)[C@H](CCCNC(=N)N)NC(=O)[C@H](CO)NC3=O)NC(=O)[C@H](CCCCN)NC(=O)[C@H](CC(=O)O)NC(=O)[C@H](CC(N)=O)NC(=O)[C@H](CC(=O)O)NC(=O)[C@@H]2CCCN2C1=O [[Met5;Leu6]GpTx-1(1-34)] (H-DCLGMLRKCIPDNDKCCRPNLVCSRTHKWCKYVF-NH2; disulfide 2-17, 9-23, 16-30) was tested. Which IC50 (hNav1.7) did it give?
The IC50 was 0.27 µM.

What about the IC50 (hNav1.5) of the same compound?
The IC50 was greater than 10 µM.

Reference: patent US9340590B2 (priority 2011, dated 2016)
